# Assays:
# [1] = Antioxidant activity assessed as DPPH radical scavenging activity at 0.5 mM after 30 mins; assay type: physicochemical; conditions: 0.5 h, 500 µM
# [2] = Antioxidant activity assessed as DPPH radical scavenging activity at 2 mM after 30 mins; assay type: physicochemical; conditions: 0.5 h, 2000 µM
# [3] = biological target: NAD(P)H dehydrogenase [quinone] 1 (Mus musculus) (UniProt Q64669); assay: Induction of NQO1 activity in mouse Hepa-1c1c7 cells at 10 uM after 24 hrs by MTT assay relative to control; assay type: cell-based
# Chain of NAD(P)H dehydrogenase [quinone] 1 (Mus musculus) (Q64669 whole entry): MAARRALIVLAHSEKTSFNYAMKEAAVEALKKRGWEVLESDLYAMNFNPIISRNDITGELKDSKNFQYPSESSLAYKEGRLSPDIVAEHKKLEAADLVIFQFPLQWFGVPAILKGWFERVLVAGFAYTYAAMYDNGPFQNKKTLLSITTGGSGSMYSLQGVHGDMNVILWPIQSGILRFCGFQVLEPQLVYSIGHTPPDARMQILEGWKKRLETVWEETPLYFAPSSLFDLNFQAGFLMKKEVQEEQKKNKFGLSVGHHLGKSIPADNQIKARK
# [4] = biological target: NAD(P)H dehydrogenase [quinone] 1 (Mus musculus) (UniProt Q64669); assay: Induction of NQO1 activity in mouse Hepa-1c1c7 cells at 20 uM after 24 hrs by MTT assay relative to control; assay type: cell-based
# [5] = Antioxidant activity assessed as DPPH radical scavenging activity at 0.05 mM after 30 mins; assay type: physicochemical; conditions: 0.5 h, 50 µM
# [6] = Cytotoxicity against mouse Hepa-1c1c7 cells assessed as cell viability at 20 uM after 24 hrs by crystal violet staining-based assay; conditions: read-out: Activity
# [7] = Antioxidant activity assessed as DPPH radical scavenging activity at 0.125 mM after 30 mins; assay type: physicochemical; conditions: 0.5 h, 125 µM
# [8] = Cytotoxicity against mouse Hepa-1c1c7 cells assessed as cell viability at 10 uM after 24 hrs by crystal violet staining-based assay; conditions: read-out: Activity
inhibition (INH) [1],inhibition (INH) [2],fold change (FC) [3],fold change (FC) [4],inhibition (INH) [5],inhibition (INH) [7],Compound,"viability at 24 h, 20 µM [6]","viability at 24 h, 10 µM [8]"
14.8%,53.6%,1.4,2.6,4.4%,8.1%,O=C(/C=C/c1ccc(O)c(O)c1/C(=C/c1ccc(O)c(O)c1)C(=O)O[C@@H](Cc1ccc(O)c(O)c1)C(=O)O)O[C@@H](Cc1ccc(O)c(O)c1)C(=O)O,88%,94%
,,2.9,,,,O=c1cc(-c2ccc(Br)cc2)oc2ccccc12,,109%
77.1%,84.3%,1.2,1.7,42.1%,64.9%,O=C(/C=C/c1ccc(O)c2c1[C@@H](C(=O)O[C@@H](Cc1ccc(O)c(O)c1)C(=O)O)[C@H](c1ccc(O)c(O)c1)O2)O[C@@H](Cc1ccc(O)c(O)c1)C(=O)O,82%,97%
58.5%,74.9%,,,26%,31.8%,O=C1O[C@H]([C@@H](O)CO)C(O)=C1O [ASCORBIC ACID],,
64.1%,84.7%,1,1.4,37.6%,60.2%,O=C(/C=C/c1ccc(O)c2c1[C@@H](C(=O)O[C@H](Cc1ccc(O)c(O)c1)C(=O)O)[C@H](c1ccc(O)c(O)c1)O2)O[C@H](Cc1ccc(O)c(O)c1)C(=O)O,79%,85%

# Source: ChEMBL document CHEMBL3745701, “Bioactive minor components of the total salvianolic acids injection prepared from Salvia miltiorrhiza Bge” (Bioorg Med Chem Lett, 2016)
